According to the supplement of paper PMC10307832:

Compound: CC1(C)CNc2cc(NC(=O)c3cccnc3NCc3ccncc3)ccc21 [Motesanib] + CC1(C)CCC(c2ccc(Cl)cc2)=C(CN2CCN(c3ccc(C(=O)NS(=O)(=O)c4ccc(N[C@H](CCN5CCOCC5)CSc5ccccc5)c(S(=O)(=O)C(F)(F)F)c4)cc3)CC2)C1 [Navitoclax] (partner 0.5 µM)
Assay: relative viability (nuclei count vs DMSO), 5 days (fraction); higher = more cells survive
Conditions: first compound 1 µM
Procedure, shortened: (§1)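 Dosing by pin tool came one day after lung cancer cell lines were seeded in 1536-well plates, using either one drug or a fixed anchor-drug dose plus five library-drug doses (not always all listed) in √10 steps. After 5 days, nuclei were counted on 4× images. Relative viability is treated-well nuclei count divided by vehicle-well nuclei count, and values are medians of duplicate plates.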

Cell Line	relative viability
H3255	0.529
COR-L23	0.972
COR-L 105	0.851
IA-LM	0.631
LOU-NH91	0.769
ChaGo-K-1	1.21
NCI-H2170	0.537
NCI-H2405	0.965
HOP-62	1.26
HCC-44	0.997
A549	1.32
LU99A	0.835
BEN	0.0672
HARA	1.22
NCI-H1299	1.07
NCI-H1792	0.703

Compound: C[C@@]1(C(=O)Nc2ccc(F)nc2)CCCN1c1nc(Nc2cc(C3CC3)n[nH]2)c2cccn2n1 + COc1cc2c(Oc3ccc(NC(=O)C4(C(=O)Nc5ccc(F)cc5)CC4)cc3F)ccnc2cc1OCCCN1CCOCC1 [Foretinib] (partner 0.25 µM)
Assay: as above
Conditions: first compound 0.04 µM
Procedure, shortened: as §1

Cell Line	relative viability
NCI-H2342	1.02
NCI-H1623	0.658
NCI-H727	0.694
NCI-H1650	1.53
EBC-1	0.114
NCI-H1703	0.294
NCI-H1993	0.659
SW 1573	0.744
NCI-H838	1.08
LCLC-103H	0.597
NCI-H520	1.01
NCI-H2126	0.885
EMC-BAC-2	0.849
NCI-H2085	0.989
Calu-6	0.959
HCC-366	0.957
NCI-H1666	0.925
NCI-H596	0.731
LK-2	0.731
NCI-H2087	0.812
SK-MES-1	0.9

Cell Line	relative viability
H3255	1
COR-L23	0.967
COR-L 105	0.887
IA-LM	1.3
LOU-NH91	0.938
ChaGo-K-1	0.831
NCI-H2170	0.932
NCI-H2405	0.866
HOP-62	1.14
A549	0.891
LU99A	0.602
BEN	0.918
HARA	0.802
SW 900	0.705
NCI-H661	1.04
NCI-H1299	1.21
NCI-H1563	1
ABC-1	0.773
NCI-H358	0.471
NCI-H650	1.02

Same assay, conditions: first compound 0.1265 µM

Cell Line	relative viability
NCI-H2342	0.906
NCI-H1623	0.82
NCI-H727	0.396
NCI-H1650	1.16
EBC-1	0.0828
NCI-H1703	0.303
NCI-H1993	0.67
SW 1573	0.826
NCI-H838	0.819
LCLC-103H	0.491
NCI-H520	0.612
NCI-H2126	0.661
EMC-BAC-2	0.721
NCI-H2085	0.736
Calu-6	0.871
HCC-366	0.922
NCI-H1666	0.909
NCI-H596	0.752
LK-2	0.945
